Reference: patent US11957684B2, “Treatment of heavy menstrual bleeding associated with uterine fibroids” (Sumitomo Pharma Switzerland GmbH, priority 2016, dated 2024)

Test system: heavy menstrual bleeding associated with uterine fibroids
Experiment: Example 5A 12-week placebo-controlled study in uterine fibroids: efficacy (PBAC, volumes, NRS, UFS-QOL, anemia parameters)
Format: in vivo, human
Protocol: Study participants were Japanese women with HMB (heavy menstrual bleeding) associated with UF (uterine fibroids).
Only the largest myomas among those measurable at Visit 1 were measured throughout the study.
During the period between Visit 2 and 3, in which subjects must have experienced at least 1 regular menstrual cycle, the baseline values concerning efficacy evaluation, including PBAC scores and pain symptoms, were collected. The baseline PBAC score is the total PBAC score for the entire menstrual cycle immediately before Visit 3.
Visit 3 was on Days 1 to 5 of the second menstrual cycle after Visit 1. From Visits 3 to 7, subjects tried to visit the clinics in a fasted state and before taking the study drug.
When a dose was missed before breakfast, subjects took the study drug 30 minutes before either dinner or lunch on the same day.
Pain symptoms, other clinical symptoms and QOL were measured as secondary endpoints. Pain symptoms were evaluated in the patient diary from Visit 1 to the day before Visit 7 using the NRS score. The UFS-QOL score was used to evaluate other clinical symptoms and the QOL of subjects. Subjects completed the UFS-QOL questionnaire at Visits 3, 5, 6 and 7.
In particular, FIGS. 50-52 tabulate hemoglobin concentrations; FIG. 53 tabulates hematocrit percentages; FIG. 54 tabulates serum iron concentrations; and FIG. 55 tabulates ferritin concentrations.
PBAC scores were used in Example 5A, and provide an estimate of menstrual blood loss volume. The PBAC score was evaluated by having subjects record details related to menstrual blood loss on a PBAC score sheet distributed by the sponsor during the treatment period. […] These items represent the level of stained sanitary materials over the course of a menstrual cycle, with a total score ranging from 0 (none) to infinity. Higher scores indicate heavier blood loss. The PBAC score sheet also allows subjects to indicate: whether they experienced bleeding between periods that required sanitary protection; whether they passed clots, and if so, approximate size of the clots; whether they experienced episodes of flooding; and whether they required double protection (used both a pad and tampon simultaneously). As used in the PBAC score sheet of Example 5A, flooding is defined as overflowing, or staining, of clothing or underwear due to menstrual bleeding.
The total PBAC score was derived by summing points for each of the above.
All myoma and uterine volumes referred to herein were evaluated using transvaginal ultrasound. Specifically, the myoma volumes were calculated using the following formula: D1×D2×D3×π/6, where D1 is the longest diameter of the myoma; D2 is the longest diameter of the myoma at an angle perpendicular to D1; and D3 is the diameter of the myoma crossing the intersection of D1 and D2 perpendicular to the D1/D2 plane.

[1] = 10 mg, Week 6-12, listed as Relugolix
[2] = 10 mg, Week 12, listed as Relugolix
[3] = 20 mg, Week 6-12, listed as Relugolix

CONC(=O)Nc1ccc(-c2sc3c(c2CN(C)C)c(=O)n(-c2ccc(OC)nn2)c(=O)n3Cc2c(F)cccc2F)cc1 [Compound 1, N-(4-(1-(2,6-difluorobenzyl)-5-((dimethylamino)methyl)-3-(6-methoxy-3-pyridazinyl)-2,4-dioxo-1,2,3,4-tetrahydrothieno[2,3-d]pyrimidin-6-yl)phenyl)-N′-methoxyurea] was tested, and the “Amenorrhea (PBAC from Week 6 to 12 was 0), number of patients” value (10 mg (n = 48)) was 8 n, the “complete response rate, uterine fibroids” value (10 mg or 20 mg) was 21-44% and the myoma volume (10 mg, Week 2) was 116.68±152.833 cm^3. The uterine volume (10 mg, Week 2) was 305.07±265.810 cm^3, the NRS score (10 mg, Week 2-6) was 0.67±1.228 and the “subjects who achieved amenorrhea (PBAC = 0)” value (10 mg, Week 2-6) was 12.5%. For the same molecule, the “subjects with total PBAC score <10” value (10 mg, Week 2-6) was 16.7%, the NRS score (10 mg, Week 2-12) was 0.63±1.217 and the “subjects who achieved amenorrhea (PBAC = 0)” value (10 mg, Week 2-12) was 10.4%. For the same molecule, the “subjects with total PBAC score <10” value (10 mg, Week 2-12) was 12.5%, the “Fe value (serum iron)” value (10 mg, Week 4) was 72.8 ± 40.58 µg/dL and the Ht value (10 mg, Week 4) was 39.48±3.327%. For the same molecule, the “UFS-QOL HRQL total score” value (10 mg, Week 4) was 11.28±10.342, the “UFS-QOL symptom severity score” value (10 mg, Week 4) was 23.78±14.736 and the ferritin value (10 mg, Week 4) was 14.71 ± 16.372 ng/mL. The myoma volume (10 mg, Week 4) was 90.89±108.009 cm^3, the uterine volume (10 mg, Week 4) was 258.10±171.703 cm^3 and the “change of total PBAC score from baseline” value (10 mg, Week 6-12) was −1.4±222.94. The “subjects who achieved amenorrhea (PBAC = 0)” value (10 mg, Week 6-12) was 16.7%, the “subjects with total PBAC score <10” value (10 mg, Week 6-12) was 20.8% and the “total PBAC score (mean±SD)” value (10 mg, Week 6-12) was 268.0±276.37. The NRS score [1] was 0.6, the “subjects who achieved amenorrhea (PBAC = 0)” value [1] was “(16.7) %” and the “Fe value (serum iron)” value (10 mg, Week 8) was 67.3 ± 34.74 µg/dL. The Ht value (10 mg, Week 8) was 39.43±3.154%, the “UFS-QOL HRQL total score” value (10 mg, Week 8) was 13.39±13.179 and the “UFS-QOL symptom severity score” value (10 mg, Week 8) was 24.55±16.105. The myoma volume (10 mg, Week 8) was 97.47±117.339 cm^3, the uterine volume (10 mg, Week 8) was 259.64±190.452 cm^3 and the “Fe value (serum iron)” value (10 mg, Week 12) was 75.3 ± 46.94 µg/dL. The Ht value (10 mg, Week 12) was 39.37±3.639%, the “UFS-QOL HRQL total score” value (10 mg, Week 12) was 13.01±13.270 and the “UFS-QOL HRQL total, change from baseline” value (10 mg, Week 12) was −1.61±10.586. The “UFS-QOL symptom severity score” value (10 mg, Week 12) was 23.28±16.053, the “UFS-QOL symptom severity, change from baseline” value (10 mg, Week 12) was −6.51±18.122 and the “change of Fe value from baseline” value (10 mg, Week 12) was 11.0 ± 42.94 µg/dL. The “change of Hb from baseline” value (10 mg, Week 12) was 0.35 ± 1.055 g/dL, the “change of Ht value from baseline” value (10 mg, Week 12) was 0.77±2.792% and the “change of ferritin value from baseline” value (10 mg, Week 12) was -2.56 ± 6.833 ng/mL. The ferritin value (10 mg, Week 12) was 10.81 ± 9.489 ng/mL, the myoma volume (10 mg, Week 12) was 97.09±126.578 cm^3 and the “percent change of myoma volume from baseline” value (10 mg, Week 12) was −22.63±29.539%. For the same molecule, the “percent change of uterine volume from baseline” value (10 mg, Week 12) was −12.10±29.936%, the uterine volume (10 mg, Week 12) was 252.93±175.064 cm^3 and the “UFS-QOL HRQL total, change from baseline” value [2] was −2. For the same molecule, the “UFS-QOL symptom severity, change from baseline” value [2] was −7, the “change of Hb from baseline” value [2] was 0.3 g/dL and the “percent change of myoma volume from baseline” value [2] was −23%. The “percent change of uterine volume from baseline” value [2] was −12%, the “Amenorrhea (PBAC from Week 6 to 12 was 0), number of patients” value (20 mg (n = 56)) was 21 n and the myoma volume (20 mg, Week 2) was 98.63±112.118 cm^3. The uterine volume (20 mg, Week 2) was 294.81±269.990 cm^3, the NRS score (20 mg, Week 2-6) was 0.48±0.970 and the “subjects who achieved amenorrhea (PBAC = 0)” value (20 mg, Week 2-6) was 33.9%. The “subjects with total PBAC score <10” value (20 mg, Week 2-6) was 42.9%, the NRS score (20 mg, Week 2-12) was 0.44±0.855 and the “subjects who achieved amenorrhea (PBAC = 0)” value (20 mg, Week 2-12) was 28.6%. The “subjects with total PBAC score <10” value (20 mg, Week 2-12) was 32.1%, the “Fe value (serum iron)” value (20 mg, Week 4) was 77.4 ± 49.74 µg/dL and the Ht value (20 mg, Week 4) was 40.06±3.773%. For the same molecule, the “UFS-QOL HRQL total score” value (20 mg, Week 4) was 11.10±13.829, the “UFS-QOL symptom severity score” value (20 mg, Week 4) was 23.12±14.327 and the ferritin value (20 mg, Week 4) was 14.77 ± 11.536 ng/mL. The myoma volume (20 mg, Week 4) was 101.51±132.419 cm^3, the uterine volume (20 mg, Week 4) was 291.73±327.844 cm^3 and the NRS score (20 mg, Week 6-12) was 0.35±0.618. The “change of total PBAC score from baseline” value (20 mg, Week 6-12) was −153.0±194.83, the “subjects who achieved amenorrhea (PBAC = 0)” value (20 mg, Week 6-12) was 38.2% and the “subjects with total PBAC score <10” value (20 mg, Week 6-12) was 43.6%. For the same molecule, the NRS score [3] was 0.4, the “subjects who achieved amenorrhea (PBAC = 0)” value [3] was “(38.2) %” and the “Fe value (serum iron)” value (20 mg, Week 8) was 84.2 ± 49.42 µg/dL. For the same molecule, the Ht value (20 mg, Week 8) was 40.39±3.389%.
